Assays:
Experiment in all cases: competition of […]-glucose uptake by germinating conidia
Format in all cases: cell-based
MstA = target: T1, MstA (Aspergillus nidulans, UniProt Q5ASJ3); conditions: V152 conidia germinated on glycerol; 90 µM 14C-glucose, 200-fold excess competitor (18 mM); minor low-affinity background uptake
T1 construct: gene ANIA_08737; full-length protein, 527 aa, homologous expression from mstC promoter in mstA mstC double-deleted A. nidulans; intact germinating conidia

MstC (SorA) [1] = target: T2, MstC (SorA) (Aspergillus nidulans, UniProt Q5AYG1); conditions: wild type V004 conidia germinated on glycerol; 16 µM 14C-glucose, 200-fold excess competitor (3.2 mM)
T2 construct: gene ANIA_06669; native full-length protein, 534 aa, in intact germinating conidia (4 h, glycerol)
T2 sequence (Q5AYG1 1-534): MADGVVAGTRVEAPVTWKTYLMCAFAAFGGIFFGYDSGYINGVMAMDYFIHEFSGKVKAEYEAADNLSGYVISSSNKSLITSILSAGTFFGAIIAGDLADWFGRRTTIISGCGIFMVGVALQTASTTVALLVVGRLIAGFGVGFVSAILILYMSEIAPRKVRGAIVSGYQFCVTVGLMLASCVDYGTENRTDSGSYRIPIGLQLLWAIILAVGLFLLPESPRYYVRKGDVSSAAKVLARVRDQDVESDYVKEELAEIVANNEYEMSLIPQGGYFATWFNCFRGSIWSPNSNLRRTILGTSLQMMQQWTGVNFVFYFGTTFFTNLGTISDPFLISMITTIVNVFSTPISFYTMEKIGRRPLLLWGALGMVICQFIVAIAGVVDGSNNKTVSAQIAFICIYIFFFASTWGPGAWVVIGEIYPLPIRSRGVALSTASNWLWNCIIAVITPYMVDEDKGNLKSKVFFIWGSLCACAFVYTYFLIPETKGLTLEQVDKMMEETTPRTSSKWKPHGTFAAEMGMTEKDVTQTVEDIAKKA

MstC (SorA) [2] = target: T2, MstC (SorA); conditions: wild type V004 conidia germinated on glycerol; 16 µM 14C-glucose, 200-fold excess competitor (3.2 mM); remark: listed apart in the source

T1 sequence (Q5ASJ3 entry or part of it): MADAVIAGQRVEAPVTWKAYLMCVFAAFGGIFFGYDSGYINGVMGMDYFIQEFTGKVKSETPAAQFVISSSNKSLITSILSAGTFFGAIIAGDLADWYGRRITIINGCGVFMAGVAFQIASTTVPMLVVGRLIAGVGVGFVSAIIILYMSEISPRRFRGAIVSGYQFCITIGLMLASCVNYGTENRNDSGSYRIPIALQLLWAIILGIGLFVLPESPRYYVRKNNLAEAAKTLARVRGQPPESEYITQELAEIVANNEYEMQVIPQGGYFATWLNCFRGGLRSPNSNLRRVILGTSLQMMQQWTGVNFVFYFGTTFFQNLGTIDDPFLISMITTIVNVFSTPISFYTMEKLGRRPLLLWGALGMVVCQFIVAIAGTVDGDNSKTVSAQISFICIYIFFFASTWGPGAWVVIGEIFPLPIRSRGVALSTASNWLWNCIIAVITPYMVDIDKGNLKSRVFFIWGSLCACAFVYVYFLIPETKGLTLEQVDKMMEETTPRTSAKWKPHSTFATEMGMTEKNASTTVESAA

Row | % reduction of uptake (MstC (SorA) [2]) | Compound | relative uptake rate, % of control (MstA) | relative uptake rate, % of control (MstC (SorA) [1])
1 | – | OC1OC[C@@H](O)[C@H](O)[C@H]1O (stereo partly drawn) [xylose] | xylose and galactose may also be minor physiological sugar substrates for this transporter | –
2 | – | OC[C@H]1OC(O)C[C@@H](O)[C@@H]1O (stereo partly drawn) [2-DOG] | – | most effective competitor, along with the glucose analogues 2-DOG and 3-O-methyl glucose
3 | 80% | OC[C@H]1OC(O)[C@@H](O)[C@@H](O)[C@@H]1O (stereo partly drawn) [mannose] | mannose is the most effective substrate of those studied in competing against glucose uptake | –
4 | – | OC[C@H]1OC(O)[C@H](O)[C@@H](O)[C@H]1O (stereo partly drawn) [galactose] | xylose and galactose may also be minor physiological sugar substrates for this transporter | –
5 | – | CO[C@H]1[C@H](O)[C@@H](CO)OC(O)[C@@H]1O (stereo partly drawn) [3-O-methyl glucose] | – | most effective competitor, along with the glucose analogues 2-DOG and 3-O-methyl glucose

Reference: article PMC3994029 (PLoS ONE, 2014)
